Measurements from US8969080B2, “Remedy for the treatment of cardio-vascular diseases or disorders” (Max-Delbrueck-Centrum fuer Molekulare Medizin, priority 2007, dated 2015).

Experiments:
mice = test: AngII infusion by minipump in control, β-catenin depleted and β-catenin stabilized mice; assay type: in vivo, mouse
Experimental: After 12 days' AngII infusion at pressure doses (1.4 μg Kg^−1 min^−1), control animals developed hypertrophy as judged by echocardiography, gene regulation, in vivo cross sectional area, and heart/body weight ratio as described before (FIG. 4). From the M-mode echocardiography imaging, a thickened inter-ventricular septum and LV posterior wall after AngII was identified in control animals (FIG. 4A). […] LV wall thickening was identical in β-catenin heart-depleted animals and control littermates after AngII (data not shown). […] Moreover, AngII increased gene expression of several hypertrophy gene markers in both control and b-catenin heart-depleted animals with the exception of β-myosin heavy chain (FIG. 4 C). A lack of β-MHC upregulation in response to stress stimuli might be indicative of adaptive cardiac remodeling preserving LV-function as described before (van Rooij E et al., Circ Res. 2004; 94:18e-26).
The effects of 12 days' AngII infusion in mice with cardiac stabilized β-catenin (β-cat^Δex3) were opposite in kind to those of mice with β-catenin heart-depletion. […] ANP (β-cat^Δex3 0.4±0.15; β-cat^Δex3+AngII 1.03±0.15; p<0.01) and BNP (β-cat^Δex3 0.43±0.24; β-cat^Δex3+AngII 1.4±0.27; p<0.01) expression was induced by AngII but final values were generally lower than in control mice (ANP: CT+AngII 2.3±0.8; BNP: CT+AngII 2.6±0.6).
As expected, fractional shortening increased in control mice after AngII treatment (31.1±1.6% to 36.2±1.6%). However, β-catenin heart-stabilization led to reduced fractional shortening after AngII infusion (34.7±2.9% to 22.4±4.5%, p<0.05). These absolute values in animals aged 10 to 14 weeks are identical to a serial analysis of the age-dependant changes employing the same high-resolution echo techniques as used for these studies. […] These absolute values are similar to other reports, i.e. rates of apoptotic cardiomyocytes after trans-aortic constriction. Moreover, no significant differences concerning fibrosis occurring focally throughout the LV wall was observed when both transgenic models were to their respective controls.
Representative examples of M-mode echocardiograms (not shown), quantification of echocardiographic parameters and heart/body weight from control and β-cat^Δex3-6 mice with and without AngII infusion are shown (n≧6 for each group) (B) Myocyte cross-sectional area increases in both control and β-catenin depleted β-cat^Δex3-6 mice as measured by WGA-FITC staining of cardiac tissue sections and quantification from control or β-cat^Δex3-6 mice with AngII infusion (data not shown). At least 500 cells were measured for each animal, n≧4 mice per group. (C) Significant upregulation of ANP, BNP and α-sarcomeric actin normalized to GAPDH after AngII in control and β-catenin depleted β-cat^Δex3-6 mice. Quantification by real-time PCR of whole heart RNA samples from control (white) or β-cat^Δex3-6 (grey) mice without (open bars) and with (shaded bars) AngII infusion. *=P<0.05, **=P<0.01, ***=P<0.001.
(A) Attenuation of cardiac hypertrophy after AngII in β-catenin stabilized mice is accompanied by significant deterioration of systolic function as measured by fractional shortening (right bar graph). Representative examples of M-mode echocardiograms and quantification from control or β-cat^Δex3 mice with and without AngII infusion. Quantification of echocardiographic wall size and fractional shortening from control or β-cat^Δex3 mice with and without AngII infusion. *=P<0.05, **=P<0.01. (B) Increase of myocyte cross-sectional area after AngII is attenuated in β-catenin stabilized β-cat^Δex3 mice (data not shown). At least 400 cells counted per animal, mice per group. ***=P<0.001. (C) Rates of TUNEL/α-sarcomeric actin/DAPI-positive cardiomyocytes after AngII infusion decrease after β-catenin stabilization in β-cat^Δex3. In addition to the TUNEL-assay, slides were co-stained with α-sarcomeric actin and DAPI in control mice and β-cat^Δex3 mice before and after AngII stimulation (data not shown).

[1] = system: β-catenin dependent transcription; test: topflash reporter gene assay in isolated neonatal rat cardiomyocytes; assay type: cell-based; conditions: co-transfection of KLF15; reporter activated by stabilized β-catenin (ΔN-catenin)
Experimental: (§1) The transcription factor Krüppel-like factor (KLF) 15 inhibits β-catenin dependent transcription in isolated cardiomyocytes through a direct interaction of its C-terminal end as shown by topflash reporter gene assay and immunoprecipitation assays (FIG. 9 A). Isolated neonatal rat cardiomyocytes were used as a model system to analyze factors inhibiting β-catenin dependent gene regulation. β-catenin dependent transcription was measured by reporter gene assay. […] Concerning the molecular mechanisms, KLF15 mutants were analyzed concerning their direct protein interaction to β-catenin employing immunoprecipitation analysis (FIG. 9 B). The interacting domain was mapped to the N-terminus between amino acids 1 and 45 (FIG. 9 B), where as the C-terminus was also required for the transcriptional repressive function.
(§2) Inhibition of β-catenin-dependent gene transcription by KLF15. (A) Reporter gene assay in isolated neonatal cardiomyocytes showing activation of the topflash reporter gene by stabilized β-catenin (ΔN-catenin; dN). A dose-dependent inhibition is observed by co-transfection of KLF15.

β-catenin = molecular target: T1, β-catenin (Homo sapiens, UniProt P35222); test: co-immunoprecipitation of KLF15 and KLF15 mutants with β-catenin; assay type: binding; conditions: full length KLF15
T1 sequence (P35222 1-781): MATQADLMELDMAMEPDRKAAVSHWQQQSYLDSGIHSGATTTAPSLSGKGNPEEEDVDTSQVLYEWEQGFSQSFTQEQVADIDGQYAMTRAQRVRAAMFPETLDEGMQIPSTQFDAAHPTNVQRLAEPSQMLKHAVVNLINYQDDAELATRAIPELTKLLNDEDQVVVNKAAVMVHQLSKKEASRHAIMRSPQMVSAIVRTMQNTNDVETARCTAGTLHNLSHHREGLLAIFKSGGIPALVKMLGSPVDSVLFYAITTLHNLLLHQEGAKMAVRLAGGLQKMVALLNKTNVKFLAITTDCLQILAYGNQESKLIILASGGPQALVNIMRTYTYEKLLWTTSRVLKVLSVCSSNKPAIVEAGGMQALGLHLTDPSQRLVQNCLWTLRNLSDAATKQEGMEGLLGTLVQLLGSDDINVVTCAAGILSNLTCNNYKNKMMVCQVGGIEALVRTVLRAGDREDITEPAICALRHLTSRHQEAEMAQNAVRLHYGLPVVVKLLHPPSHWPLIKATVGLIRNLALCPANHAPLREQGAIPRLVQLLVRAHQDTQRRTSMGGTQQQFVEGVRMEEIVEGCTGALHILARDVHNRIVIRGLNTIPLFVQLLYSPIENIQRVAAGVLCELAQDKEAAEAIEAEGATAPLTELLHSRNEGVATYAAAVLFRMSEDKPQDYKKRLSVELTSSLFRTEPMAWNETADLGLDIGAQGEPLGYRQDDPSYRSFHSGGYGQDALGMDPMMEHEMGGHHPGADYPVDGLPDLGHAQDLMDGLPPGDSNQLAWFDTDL
Experimental: as §1, §2

**Q.** How did the “cardiomyocyte size following AngII treatment” value (mice; CT animals of the β-catenin stabilization model) turn out when “Angiotensin II (DRVYIHPF; Angiotensin-2; UniProt P01019 25-32, looked up) [AngII, hypertrophic stress stimulus infused by minipump]” was run?
**A.** 9.07×10^7±0.14×10^7

**Q.** What about the “TUNEL-positive cells after AngII” value (mice; CT of the β-catenin depletion model, baseline 0.004±0.004) of the same substance?
**A.** 0.09±0.02%

**Q.** And the ANP expression (mice; CT+AngII)?
**A.** 2.3±0.8

**Q.** What about the BNP expression (mice; CT+AngII) of the same substance?
**A.** 2.6±0.6

**Q.** What about the “TUNEL/α-sarcomeric actin/DAPI-positive cells after AngII” value (mice; CT+AngII, β-catenin stabilization model) of the same substance?
**A.** 0.297±0.025%

**Q.** And the “Axin2 levels (whole heart RNA)” value (mice; both control and β-catenin stabilized mice)?
**A.** increased

**Q.** What about the “cellular cross sectional area” value (mice; control mice of the β-catenin depletion model, after 12 days' AngII infusion) of the same substance?
**A.** 12.3×10^7±0.19×10^7 a.u.

**Q.** And the “fractional shortening after AngII” value (mice; control mice, baseline 31.1±1.6%)?
**A.** 36.2±1.6%

**Q.** And the Tbx5 gene expression (mice; control mice, effect lost in β-catenin stabilized mice)?
**A.** significantly downregulated

**Q.** What about the ANP expression (mice; β-cat^Δex3+AngII, baseline 0.4±0.15) of the same substance?
**A.** 1.03±0.15

**Q.** What about the BNP expression (mice; β-cat^Δex3+AngII, baseline 0.43±0.24) of the same substance?
**A.** 1.4±0.27

**Q.** What about the “TUNEL-positive cells after AngII” value (mice; β-cat^Δex3-6 mice, baseline 0.112±0.044%) of the same substance?
**A.** 0.2±0.13%

**Q.** What about the “cardiomyocyte size following AngII treatment” value (mice; β-cat^Δex3 mice) of the same substance?
**A.** 8.14×10^7±0.14×10^7

**Q.** And the “TUNEL/α-sarcomeric actin/DAPI-positive cells after AngII” value (mice; β-cat^Δex3 mice, baseline 0.058±0.027%)?
**A.** 0.120±0.049%

**Q.** And the “cellular cross sectional area” value (mice; β-catenin depleted mice (β-cat^Δex3-6), after 12 days' AngII infusion 1.4 μg Kg^−1 min^−1)?
**A.** 12.1×10^7±0.24×10^7 a.u.

**Q.** What about the “fractional shortening after AngII” value (mice; β-catenin heart-stabilized mice, baseline 34.7±2.9%) of the same substance?
**A.** 22.4±4.5%

**Q.** With “KLF15: transcription factor Krüppel-like factor 15, co-transfected; inhibits β-catenin dependent transcription” as the substance, how does the “topflash reporter gene activation” value [1] read?
**A.** inhibit topflash reporter gene activation dose dependendly

**Q.** And the “direct protein interaction to β-catenin (immunoprecipitation)” value (β-catenin)?
**A.** interaction
